Data from US20260274892A1, “MACROCYCLIC BROAD SPECTRUM ANTIBIOTICS” (RQx Pharmaceuticals, Inc., priority 2017, published 2026).

Test system: Escherichia coli ATCC 25922
Assay: Minimum inhibitory concentration (MIC), CLSI broth micro-dilution, E. coli
Type: cell-based
Settings: Escherichia coli
In short: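 Antibacterial potency is measured as MIC by the CLSI broth dilution method. Bacteria at OD600 0.0005 in Tween-80-supplemented cation-adjusted Mueller Hinton broth face ten twofold compound dilutions for 22 h at 35° C.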

[1] = ATCC25922, 22 h, Table 7, cation adjusted Mueller Hinton Broth + 0.002% Tween-80, 35° C.
[2] = ATCC25922, Table 6, cation adjusted Mueller Hinton Broth + 0.002% Tween-80, 35° C., 22 hours
[3] = ATCC25922, 22 h, Table 6, cation adjusted Mueller Hinton Broth + 0.002% Tween-80, 35° C.

Row | MIC [1] | SMILES | MIC [2] | also measured
1 | 0.19 µM | COc1c(OCCN)cc2cc1-c1cc(cc(OCCN)c1OC)[C@H](N(C)C(=O)[C@H](CCN)NC(=O)c1c(C)nc(-c3ccc(C(C)(C)C)cc3)nc1C)C(=O)N[C@@H](C)C(=O)N[C@H](C(=O)NCC#N)C2 (racemic) [Compound 592, rac-(8S,11S,14S)-4,17-bis(2-aminoethoxy)-N-(cyanomethyl)-3,18-dimethoxy-11-methyl-14-[methyl-[rac-(2S)-4-amino-2-[[2-(4-tert-butylphenyl)-4,6-dimethyl-pyrimidine-5-carbonyl]amino]butanoyl]amino]-10,13-dioxo-9,12-diazatricyclo[13.3.1.12,6]icosa-1(18),2(20),3,5,15(19),16-hexaene-8-carboxamide] |  | 
2 |  | Cc1nc(-c2ccc(OC(C)C)cc2)nc(C)c1C(=O)N[C@@H](CCN)C(=O)N(C)[C@@H]1C(=O)N[C@@H](C)C(=O)N[C@H](C(=O)NCC#N)Cc2ccc(OC[C@H](O)CN)c(c2)-c2cc1ccc2OC[C@H](O)CN (racemic) [Compound 569, rac-(8S,11S,14S)-N-(cyanomethyl)-11-methyl-14-[methyl-[rac-(2S)-4-amino-2-[[2-(4-isopropoxyphenyl)-4,6-dimethyl-pyrimidine-5-carbonyl]amino]butanoyl]amino]-10,13-dioxo-3,18-bis[rac-(2R)-3-amino-2-hydroxy-propoxy]-9,12-diazatricyclo[13.3.1.12,6]icosa-1(18),2(20),3,5,15(19),16-hexaene-8-carboxamide] |  | MIC (ATCC25922, Table 7, cation adjusted Mueller Hinton Broth + 0.002% Tween-80, 35° C., 22 hours): 0.5 µM
3 |  | Cc1nc(-c2ccc(C(C)(C)C)cc2)ncc1C(=O)N[C@@H](CNC(=O)CN)C(=O)N(C)[C@@H]1C(=O)N[C@@H](C)C(=O)N[C@H](C(=O)NCC#N)Cc2ccc(OCCN)c(c2)-c2cc1ccc2OCCN (racemic) [Compound 491, rac-(8S,11S,14S)-3,18-bis(2-aminoethoxy)-N-(cyanomethyl)-11-methyl-14-[methyl-[rac-(2S)-3-[(2-aminoacetyl)amino]-2-[[2-(4-tert-butylphenyl)-4-methyl-pyrimidine-5-carbonyl]amino]propanoyl]amino]-10,13-dioxo-9,12-diazatricyclo[13.3.1.12,6]icosa-1(18),2(20),3,5,15(19),16-hexaene-8-carboxamide] | 3.1 µM | 
4 |  | CONCC[C@H](NC(=O)c1cnc(-c2ccc(C(C)(C)C)cc2)nc1C)C(=O)N(C)[C@@H]1C(=O)N[C@@H](C)C(=O)N[C@H](C(=O)NCC#N)Cc2ccc(OCCN)c(c2)-c2cc1ccc2OCCN (racemic) [Compound 460, rac-(8S,11S,14S)-3,18-bis(2-aminoethoxy)-N-(cyanomethyl)-11-methyl-14-[methyl-[rac-(2S)-2-[[2-(4-tert-butylphenyl)-4-methyl-pyrimidine-5-carbonyl]amino]-4-(methoxyamino)butanoyl]amino]-10,13-dioxo-9,12-diazatricyclo[13.3.1.12,6]icosa-1(18),2(20),3,5,15(19),16-hexaene-8-carboxamide] | 4.1 µM | 
5 |  | Cc1cc(-c2ccc(C(C)(C)C)cc2)cc(C)c1C(=O)N[C@@H](CCN)C(=O)N(C)[C@@H]1C(=O)N[C@@H](C)C(=O)N[C@H](C(=O)NCC#N)Cc2ccc(O)c(c2)-c2cc1ccc2OCCN (racemic) [Compound 541, rac-(8S,11S,14S)-18-(2-aminoethoxy)-N-(cyanomethyl)-3-hydroxy-11-methyl-14-[methyl-[rac-(2S)-4-amino-2-[[4-(4-tert-butylphenyl)-2,6-dimethyl-benzoyl]amino]butanoyl]amino]-10,13-dioxo-9,12-diazatricyclo[13.3.1.12,6]icosa-1(18),2(20),3,5,15(19),16-hexaene-8-carboxamide] |  | MIC [3]: 0.75 µM
6 |  | C[C@@H]1NC(=O)[C@@H](N(C)C(=O)[C@H](CCN)NC(=O)c2c(N)cc(-c3ccc(C(C)(C)C)cc3)nc2N)c2ccc(OCCN)c(c2)-c2cc(ccc2OCCN)C[C@@H](C(=O)NCC#N)NC1=O (racemic) [Compound 520, rac-(8S,11S,14S)-3,18-bis(2-aminoethoxy)-N-(cyanomethyl)-11-methyl-14-[methyl-[rac-(2S)-4-amino-2-[[2,4-diamino-6-(4-tert-butylphenyl)pyridine-3-carbonyl]amino]butanoyl]amino]-10,13-dioxo-9,12-diazatricyclo[13.3.1.12,6]icosa-1(18),2(20),3,5,15(19),16-hexaene-8-carboxamide] |  | MIC [3]: 1 µM
7 | 0.5 µM | Cc1nc(-c2ccc(C(C)(C)C)cc2)nc(C)c1C(=O)N[C@@H](CCN)C(=O)N(C)[C@@H]1C(=O)N[C@@H](C)C(=O)N[C@H](C(=O)NCC#N)Cc2ccc(O)c(c2)-c2cc1ccc2OCCCNC(=N)N (racemic) [Compound 596, rac-(8S,11S,14S)-N-(cyanomethyl)-18-(3-guanidinopropoxy)-3-hydroxy-11-methyl-14-[methyl-[rac-(2S)-4-amino-2-[[2-(4-tert-butylphenyl)-4,6-dimethyl-pyrimidine-5-carbonyl]amino]butanoyl]amino]-10,13-dioxo-9,12-diazatricyclo[13.3.1.12,6]icosa-1(18),2(20),3,5,15(19),16-hexaene-8-carboxamide] |  | 
8 |  | Cc1nc(-c2ccc(C(C)(C)C)cc2)ncc1C(=O)N[C@@H](CCNC=O)C(=O)N(C)[C@@H]1C(=O)N[C@@H](C)C(=O)N[C@H](C(=O)NCC#N)Cc2ccc(OCCN)c(c2)-c2cc1ccc2OCCN (racemic) [Compound 494, rac-(8S,11S,14S)-3,18-bis(2-aminoethoxy)-N-(cyanomethyl)-11-methyl-14-[methyl-[rac-(2S)-2-[[2-(4-tert-butylphenyl)-4-methyl-pyrimidine-5-carbonyl]amino]-4-formamido-butanoyl]amino]-10,13-dioxo-9,12-diazatricyclo[13.3.1.12,6]icosa-1(18),2(20),3,5,15(19),16-hexaene-8-carboxamide] | 1.1 µM | 
9 |  | Cc1nc(Oc2ccc(C(C)(C)C)cc2)nc(C)c1C(=O)N[C@@H](CCN)C(=O)N(C)[C@@H]1C(=O)N[C@@H](C)C(=O)N[C@H](C(=O)NCC#N)Cc2ccc(OCCN)c(c2)-c2cc1ccc2OCCN (racemic) [Compound 353, rac-(8S,11S,14S)-3,18-bis(2-aminoethoxy)-N-(cyanomethyl)-11-methyl-14-[methyl-[rac-(2S)-4-amino-2-[[2-(4-tert-butylphenoxy)-4,6-dimethyl-pyrimidine-5-carbonyl]amino]butanoyl]amino]-10,13-dioxo-9,12-diazatricyclo[13.3.1.12,6]icosa-1(18),2(20),3,5,15(19),16-hexaene-8-carboxamide] | 2 µM | 
10 |  | Cc1nc(-c2ccc(OC3(C)CC3)cc2)nc(C)c1C(=O)N[C@@H](CCN)C(=O)N(C)[C@@H]1C(=O)N[C@@H](C)C(=O)N[C@H](C(=O)NCC#N)Cc2ccc(OCCN)c(c2)-c2cc1ccc2OCCN (racemic) [Compound 344, rac-(8S,11S,14S)-3,18-bis(2-aminoethoxy)-N-(cyanomethyl)-11-methyl-14-[methyl-[rac-(2S)-4-amino-2-[[4,6-dimethyl-2-[4-(1-methylcyclopropoxy)phenyl]pyrimidine-5-carbonyl]amino]butanoyl]amino]-10,13-dioxo-9,12-diazatricyclo[13.3.1.12,6]icosa-1(18),2(20),3,5,15(19),16-hexaene-8-carboxamide] | 0.38 µM | 
11 | 0.25 µM | Cc1nc(-c2ccc(C(C)(C)C)cc2)nc(C)c1C(=O)N[C@@H](CCN)C(=O)N(C)[C@@H]1C(=O)N[C@@H](C)C(=O)N[C@H](C(=O)NCC#N)Cc2ccc(OC[C@H](N)CO)c(c2)-c2cc1ccc2O (racemic) [Compound 612, rac-(8S,11S,14S)-N-(cyanomethyl)-18-hydroxy-11-methyl-14-[methyl-[rac-(2S)-4-amino-2-[[2-(4-tert-butylphenyl)-4,6-dimethyl-pyrimidine-5-carbonyl]amino]butanoyl]amino]-10,13-dioxo-3-[rac-(2R)-2-amino-3-hydroxy-propoxy]-9,12-diazatricyclo[13.3.1.12,6]icosa-1(18),2(20),3,5,15(19),16-hexaene-8-carboxamide] |  | 
12 | 0.19 µM | Cc1nc(-c2ccc(C(C)(C)C)cc2)nc(C)c1C(=O)N[C@@H](CCN)C(=O)N(C)[C@@H]1C(=O)N[C@@H](C)C(=O)N[C@H](C(=O)NCC#N)Cc2ccc(O)c(c2)-c2cc1ccc2OCC(CN)CN (racemic) [Compound 611, rac-(8S,11S,14S)-18-[3-amino-2-(aminomethyl)propoxy]-N-(cyanomethyl)-3-hydroxy-11-methyl-14-[methyl-[rac-(2S)-4-amino-2-[[2-(4-tert-butylphenyl)-4,6-dimethyl-pyrimidine-5-carbonyl]amino]butanoyl]amino]-10,13-dioxo-9,12-diazatricyclo[13.3.1.12,6]icosa-1(18),2(20),3,5,15(19),16-hexaene-8-carboxamide] |  | 
